Like-named read-outs stand apart in the source and are kept apart here.
What was measured:
cyclin E/CDK2 enzyme = target: T1, cyclin E/CDK2 enzyme (Homo sapiens, UniProt P24941); test: CDK2 ELISA kinase assay (phospho-Rb ser 795 detection); format: biochemical
T1 construct: made in house; host or cells: Sf9 insect cells, recombinant baculovirus
Procedure, shortened: (§1)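 ELISA format: plate-bound GST-Rb, 200 μM ATP, Sf9 cyclin/CDK enzyme, 1 h at 30° C; then anti-pRb Ser795 primary overnight at 4° C, HRP secondary, TMB. IC50 after no-substrate background subtraction.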

MCF-7 = test: Cytotoxicity assay (SRB), MCF-7; format: cell-based; settings: MCF-7 cells, SRB, read-out: In Vitro Cellular Activity IC50 MCF-7
Procedure, shortened: (§2)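 Seeding: BT474 12000, HCT-116 4000, LoVo 6000, MCF-7 6000 cells/well; overnight attachment, 37 °C, 7% CO2. Drug exposure 3 d (BT474 6 d), RPMI 1640 + 5% FBS. Readout: TCA fix, 0.4% SRB, Tris solubilisation, A540.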

cyclin D1/cdk 4 enzyme = target: T2, cyclin D1/cdk 4 enzyme (Homo sapiens, UniProt P11802); test: CDK4 ELISA kinase assay (phospho-Rb ser 795 detection); format: biochemical
T2 construct: made in house; host or cells: Sf9 insect cells, recombinant baculovirus
Procedure, shortened: as §1

BT474 = test: Cytotoxicity assay (SRB), BT474; format: cell-based
Procedure, shortened: as §2

cyclin B/CDK1 enzyme = target: T3, cyclin B/CDK1 enzyme (Homo sapiens, UniProt P06493); test: CDK1 ELISA kinase assay (phospho-Rb ser 795 detection); format: biochemical
T3 construct: purchased New England BioLabs; host or cells: Sf9 insect cells, recombinant baculovirus
Procedure, shortened: as §1

HCT-116 = test: Cytotoxicity assay (SRB), HCT-116; format: cell-based; settings: HCT116 cells, SRB, read-out: In Vitro Cellular Activity IC50 HCT116
Procedure, shortened: as §2

LoVo = test: Cytotoxicity assay (SRB), LoVo; format: cell-based; settings: LoVo cells, SRB, read-out: In Vitro Cellular Activity IC50 LOVO
Procedure, shortened: as §2

[1] = In Vitro Enzyme Assays, read-out: CDK2 IC50
[2] = In Vitro Enzyme Assays, 200 μM ATP, read-out: CDK4 IC50
[3] = In Vitro Enzyme Assays, read-out: CDK1 IC50
[4] = Homo sapiens, MCF7, 72 h, 3 days
[5] = Homo sapiens, BT-474, 144 h, BT474 cells, 6 days, SRB; read-out: In Vitro Cellular Activity IC50 BT474
[6] = Homo sapiens, HCT-116, 72 h, 3 days
[7] = Homo sapiens, LoVo, 72 h, 3 days
[8] = Homo sapiens, MCF7, 72 h, three days
[9] = Homo sapiens, BT-474, 144 h, BT474 cells, SRB, 6 days; read-out: In Vitro Cellular Activity IC50 BT474
[10] = Homo sapiens, HCT-116, 72 h, three days
[11] = Homo sapiens, LoVo, 72 h, three days
[12] = In Vitro Enzyme Assay, cyclin E/CDK2, read-out: CDK2 IC50
[13] = In Vitro Enzyme Assay, cyclin D1/cdk 4, read-out: CDK4 IC50
[14] = In Vitro Enzyme Assay, cyclin B/CDK1, read-out: CDK1 IC50

T2 sequence (P11802 whole entry, species assumed): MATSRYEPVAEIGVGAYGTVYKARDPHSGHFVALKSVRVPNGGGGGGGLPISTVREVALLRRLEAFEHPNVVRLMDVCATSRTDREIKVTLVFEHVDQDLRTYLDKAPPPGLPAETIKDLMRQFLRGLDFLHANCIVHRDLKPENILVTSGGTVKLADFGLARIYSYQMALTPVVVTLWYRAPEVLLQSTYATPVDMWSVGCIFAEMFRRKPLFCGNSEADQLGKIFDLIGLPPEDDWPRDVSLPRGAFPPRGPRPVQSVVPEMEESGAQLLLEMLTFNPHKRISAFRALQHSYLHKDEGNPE
T2 sequence (P24385 whole entry partner, species assumed): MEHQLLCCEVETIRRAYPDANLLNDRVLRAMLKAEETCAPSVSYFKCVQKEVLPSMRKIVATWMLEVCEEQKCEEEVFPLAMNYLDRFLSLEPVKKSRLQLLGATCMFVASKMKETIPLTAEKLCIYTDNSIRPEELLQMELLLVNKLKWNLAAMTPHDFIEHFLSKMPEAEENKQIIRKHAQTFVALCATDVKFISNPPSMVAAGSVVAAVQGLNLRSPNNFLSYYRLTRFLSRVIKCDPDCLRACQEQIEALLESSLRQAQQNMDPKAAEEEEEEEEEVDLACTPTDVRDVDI
T3 sequence (P06493 whole entry): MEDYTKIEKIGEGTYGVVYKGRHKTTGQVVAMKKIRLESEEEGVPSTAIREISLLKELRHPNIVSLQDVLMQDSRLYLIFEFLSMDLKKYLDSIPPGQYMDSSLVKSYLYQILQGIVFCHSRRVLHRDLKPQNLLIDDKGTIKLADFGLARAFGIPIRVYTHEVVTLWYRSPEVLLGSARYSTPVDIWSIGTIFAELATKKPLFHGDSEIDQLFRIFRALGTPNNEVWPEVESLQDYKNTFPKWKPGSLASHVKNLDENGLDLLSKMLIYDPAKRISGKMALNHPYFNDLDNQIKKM
T3 sequence (P14635 whole entry partner): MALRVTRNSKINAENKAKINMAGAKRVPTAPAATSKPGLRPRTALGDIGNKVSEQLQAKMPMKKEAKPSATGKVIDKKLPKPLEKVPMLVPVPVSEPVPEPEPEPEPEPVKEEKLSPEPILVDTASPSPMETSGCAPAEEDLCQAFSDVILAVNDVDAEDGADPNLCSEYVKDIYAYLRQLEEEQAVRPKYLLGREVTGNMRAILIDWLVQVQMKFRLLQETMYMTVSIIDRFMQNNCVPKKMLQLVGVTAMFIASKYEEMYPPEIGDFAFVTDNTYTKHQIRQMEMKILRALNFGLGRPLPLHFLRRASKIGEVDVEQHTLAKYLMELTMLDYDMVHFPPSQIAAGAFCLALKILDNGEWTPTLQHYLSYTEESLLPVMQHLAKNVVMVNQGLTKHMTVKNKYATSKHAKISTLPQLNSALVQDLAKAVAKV

CCCOc1ccc(CN/C=C2\C(=O)NC(=O)c3ccc(I)cc32)nc1Br [Example 379, (Z)-4-(((6-Bromo-5-propoxypyridin-2-yl)methylamino)methylene)-6-iodoisoquinoline-1,3(2H,4H)-dione]
IC50 (cyclin E/CDK2 enzyme; [1]): > 50 µM
IC50 (MCF-7; three days): 14 µM
IC50 (cyclin D1/cdk 4 enzyme; [2]): 0.69 µM
IC50 (BT474; BT474 cells, SRB, 6 days; read-out: In Vitro Cellular Activity IC50 BT474): 1.4 µM
IC50 (cyclin B/CDK1 enzyme; [3]): > 50 µM
IC50 (HCT-116; three days): 2.1 µM
IC50 (LoVo; three days): 2.6 µM

Cn1ccc(CN/C=C2\C(=O)NC(=O)c3ccc(I)cc32)cc1=O [Example 453, (4Z)-6-Iodo-4-({[(1-methyl-2-oxo-1,2-dihydropyridin-4-yl)methyl]amino}methylene)isoquinoline-1,3(2H,4H)-dione]
IC50 (cyclin E/CDK2 enzyme; [1]): 1 µM
IC50 (MCF-7; [4]): 4.3 µM
IC50 (cyclin D1/cdk 4 enzyme; [2]): 0.06 µM
IC50 (BT474; [5]): 4 µM
IC50 (cyclin B/CDK1 enzyme; [3]): 12.6 µM
IC50 (HCT-116; [6]): 3.7 µM
IC50 (LoVo; [7]): 3.3 µM

C=CC(=O)Nc1ccc(CN/C=C2\C(=O)NC(=O)c3ccc(I)cc32)cc1O [Example 342, N-[2-Hydroxy-4-({[(Z)-(6-iodo-1,3-dioxo-2,3-dihydroisoquinolin-4(1H)-ylidene)methyl]amino}methyl)phenyl]acrylamide]
IC50 (cyclin E/CDK2 enzyme; [1]): 0.86 µM
IC50 (MCF-7; [8]): 0.15 µM
IC50 (cyclin D1/cdk 4 enzyme; [2]): 0.01 µM
IC50 (BT474; [9]): 0.07 µM
IC50 (cyclin B/CDK1 enzyme; [3]): 2.9 µM
IC50 (HCT-116; [10]): 0.12 µM
IC50 (LoVo; [11]): 0.09 µM

CC(=O)c1ccc(-c2ccc3c(c2)C(=CNc2ccc(N4CCN(C)CC4)cc2)C(=O)NC3=O)cc1 [Example 688, 6-(4-Acetyl-phenyl)-4-{[4-(4-methyl-piperazin-1-yl)-phenylamino]-methylene}-4H-isoquinoline-1,3-dione]
IC50 (cyclin E/CDK2 enzyme; [12]): > 50 µM
IC50 (MCF-7; [4]): 5 µM
IC50 (cyclin D1/cdk 4 enzyme; [13]): 0.26 µM
IC50 (BT474; [5]): 3.3 µM
IC50 (cyclin B/CDK1 enzyme; [14]): 21.1 µM
IC50 (HCT-116; [6]): 2 µM
IC50 (LoVo; [7]): 4.6 µM

O=C1NC(=O)c2ccc(-n3cccc3)cc2/C1=C/Nc1ccc(CN2CCCC2)cc1 [Example 72]
IC50 (cyclin E/CDK2 enzyme; [1]): > 50 µM
IC50 (MCF-7; [8]): 2.6 µM
IC50 (cyclin D1/cdk 4 enzyme; [2]): 0.19 µM
IC50 (BT474; [9]): 4.1 µM
IC50 (cyclin B/CDK1 enzyme; [3]): > 50 µM
IC50 (HCT-116; [10]): 3.4 µM
IC50 (LoVo; [11]): 3.4 µM

O=C1NC(=O)c2ccc(-c3ccc(OC(F)(F)F)cc3)cc2C1=CNCc1ccc(O)c(O)c1 [Example 818, 4-[(3,4-Dihydroxy-benzylamino)-methylene]-6-(4-trifluoromethoxy-phenyl)-4H-isoquinoline-1,3-dione]
IC50 (cyclin E/CDK2 enzyme; [12]): 30.3 µM
IC50 (MCF-7; [4]): 10.5 µM
IC50 (cyclin D1/cdk 4 enzyme; [13]): 0.79 µM
IC50 (BT474; [5]): 22.9 µM
IC50 (cyclin B/CDK1 enzyme; [14]): 36.3 µM
IC50 (HCT-116; [6]): 11.7 µM
IC50 (LoVo; [7]): 7.4 µM

N#Cc1ccc(-c2ccc3c(c2)C(=CNCc2ccc(O)c(O)c2)C(=O)NC3=O)cc1 [Example 784, 4-{4-[(3,4-Dihydroxy-benzylamino)-methylene]-1,3-dioxo-1,2,3,4-tetrahydro-isoquinolin-6-yl}-benzonitrile]
IC50 (cyclin E/CDK2 enzyme; [12]): 7.3 µM
IC50 (MCF-7; [4]): 13.8 µM
IC50 (cyclin D1/cdk 4 enzyme; [13]): 0.06 µM
IC50 (BT474; [5]): > 50 µM
IC50 (cyclin B/CDK1 enzyme; [14]): 27.7 µM
IC50 (HCT-116; [6]): 8.7 µM
IC50 (LoVo; [7]): 35.1 µM

O=C1NC(=O)c2ccc(I)cc2/C1=C/Nc1ccc(CN2CCS(=O)(=O)CC2)cc1 [Example 483, 4-{[4-(1,1-Dioxo-1-thiomorpholin-4-ylmethyl)-phenylamino]-methylene}-6-iodo-4H-isoquinoline-1,3-dione]
IC50 (cyclin E/CDK2 enzyme; [12]): > 50 µM
IC50 (MCF-7; [4]): > 50 µM
IC50 (cyclin D1/cdk 4 enzyme; [13]): 16.1 µM
IC50 (BT474; [5]): > 50 µM
IC50 (cyclin B/CDK1 enzyme; [14]): > 50 µM
IC50 (HCT-116; [6]): 13.1 µM
IC50 (LoVo; [7]): > 50 µM

O=C1NC(=O)c2ccc(Br)cc2/C1=C/NCc1cc[nH]c(=O)c1 [Example 225, (4Z)-6-Bromo-4-({[(2-oxo-1,2-dihydropyridin-4-yl)methyl]amino}methylene)isoquinoline-1,3(2H,4H)-dione]
IC50 (cyclin E/CDK2 enzyme; [1]): 2.7 µM
IC50 (MCF-7; [8]): > 50 µM
IC50 (cyclin D1/cdk 4 enzyme; [2]): 0.56 µM
IC50 (BT474; [9]): 19.5 µM
IC50 (cyclin B/CDK1 enzyme; [3]): > 50 µM
IC50 (HCT-116; [10]): > 50 µM
IC50 (LoVo; [11]): > 50 µM
